# From patent US20180255776A1, “HERBICIDAL COMPOSITIONS CONTAINING 4-AMINO-3-CHLORO-6-(4-CHLORO-2-FLUORO-3-METHOXYPHENYL) PYRIDINE-2-CARBOXYLIC ACID OR A DERIVATIVE THEREOF, A TRIAZOLOPYRIMIDINE SULFONAMIDE HERBICIDE OR A DERIVATIVE THEREOF, AND GLYPHOSATE OR A DERIVATIVE THEREOF” (DOW AGROSCIENCES LLC, priority 2015, published 2018)
# Counter-ions that a name gives are not always drawn.
# Assays:
# Assay in all cases: Post-emergence field trial, visual % weed control
# Assay type in all cases: in vivo
# [1] = tested on: Commelina benghalensis (hairy wandering Jew, COMBE); settings: 35DAA, Glyphosate DMA salt 960 g ai/ha
# Method: (§1) Treatments consisted of the methyl ester of 4-amino-3-chloro-6-(4-chloro-2-fluoro-3-methoxyphenyl)pyridine-2-carboxylic acid (Cmpd 1) and diclosulam in combination as GF-3220. […] Glyphosate dimethylammonium salt was applied as various commercial formulations containing 480 grams acid equivalent per liter (g ae/L).
# (§2) Field trials were conducted under standard field conditions. Plot sizes varied from 3-4 meters (m) wide by 5-10 m long. Treatments were applied with small plot backpack sprayers, using pressurized carbon dioxide (CO2) as propellant. Pressure varied from 30-50 pounds per square inch (PSI), with spray tips typically of a Flat Fan type applying water diluent at 100-150 liters per hectare (L/ha). Boom sizes varied from 3-4 m in width. Weed sizes varied, but all treatments were applied as post-emergence treatments to weeds from 2 leaf to 2 tiller growth stages varying from 2-15 inches in height. No additional adjuvant was mixed with the treatments applied in the field.
# (§3) The weed spectrum included, but was not limited to, Commelina benghalensis (hairy wandering Jew, COMBE), Echinochloa crus-galli (barnyardgrass, ECHCG), Euphorbia heterophylla (wild poinsettia, EPHHL), Conyza bonariensis (hairy fleabane, ERIBO), Conyza canadensis (horseweed, ERICA), Conyza sumatrensis (Guernsey fleabane, ERISU) and Ipomoea grandifolia (Corda-de-viola, IAQGR).
# (§4) The values reported are percent (%) control visually rated. The predicted percent (%) weed control was determined using Colby's equation.
# [2] = tested on: Conyza bonariensis (hairy fleabane, ERIBO); settings: Glyphosate DMA salt 960 g ai/ha
# Method: as §1, §2, §3, §4
# [3] = tested on: Conyza canadensis (horseweed, ERICA); settings: Glyphosate DMA salt 1200 g ai/ha
# Method: as §1, §2, §3, §4
# [4] = tested on: Conyza sumatrensis (Guernsey fleabane, ERISU); settings: Glyphosate DMA salt 1200 g ai/ha
# Method: as §1, §2, §3, §4
# [5] = tested on: Euphorbia heterophylla (wild poinsettia, EPHHL); settings: 35DAA, Glyphosate DMA salt 960 g ai/ha
# Method: as §1, §2, §3, §4
# [6] = tested on: Ipomoea grandifolia (Corda-de-viola, IAQGR); settings: Glyphosate DMA salt 960 g ai/ha
# Method: as §1, §2, §3, §4
smiles,measurement,setting,value
"O=C(O)CNCP(=O)(O)O [Glyphosate DMA salt, Glyphosate dimethylammonium salt]",Mean % weed control,[1],62.0%
same,Mean % weed control,[2]; 9DAA,10.0%
same,Mean % weed control,[2]; 14DAA,40.0%
same,Mean % weed control,[2]; 35DAA,25.0%
same,Mean % weed control,[2]; 67DAA,20.0%
same,Mean % weed control,[3]; 46DAA,25.0%
same,Mean % weed control,[3]; 62DAA,20.0%
same,Mean % weed control,[4]; 19DAA,19.0%
same,Mean % weed control,[4]; 29DAA,17.0%
same,Mean % weed control,[5],7.5%
same,Mean % weed control,[6]; 14DAA,40.0%
same,Mean % weed control,[6]; 28DAA,45.0%
